One data set concerns Histidine decarboxylase. The note with it: rat stomach; cited from earlier work.
Another data set has as its system acetyl CoA carboxylase. Conditions: co-incubation of hepatocytes with ligand; cited from earlier work.
The next data set relates to GSTa isoform. The note with it: rat livers, precancerous change; cited from earlier work.
The test system of data set [1] is CYP2B1. The note with it: in vivo mouse model; cited from earlier work.
Data set [2] relates to genes responsive to PPARαL treatment in rat liver. Kind of data set: GENECALLING differential gene expression analysis of liver from rats treated with PPARα ligand GW9578 vs vehicle control. It is filed as in vivo. The method, then: The present invention is based in part on the discovery of changes in expression patterns of multiple nucleic acid sequences, including sequences encoding known genes as well as heretofore undescribed nucleic acid sequences, in rodent liver cells following exposure to a ligand for a PPARα. The differences in gene expression were identified following administration of 1.5 mg/kg/day of a PPARα-specific ligand named GW9578. This compound is described in Brown et al., J. Med. Chem.42:3785-8, 1999, whose contents are incorporated herein in their entirety.
GW9578 was administered to male 10-14 week old Sprague Dawley rats in b.i.d. dosing for 3 days. The animals were sacrificed 24 hours following the last dose, and liver tissue was analysis using the GENECALLING® sequence identification methods described U.S. Pat. No. 5,871,697. The contents of this application are incorporated herein by reference in their entirety.
The GENECALLING® sequence identification method is performed by digesting a cDNA with a pair of restriction endonucleases. The digested fragments are differentially tagged at both the 3- and 5′-termini, and amplified via polymerase chain reaction (PCR) with a fluorescent label that is detected upon subsequent electrophoresis. In the studies with PPARα ligand GW9578, a total of 48 different reactions were performed, each with a unique pair of restriction enzymes. […] This number represents a non-redundant coverage of approximately 85% of the total number of hepatic genes.
The hepatic response to treatment with the PPARαL compound was determined by comparing in triplicate the relative abundance of each of the 8973 gene fragments in the PPARαL-treated vs. the PPARα-untreated rodents. Comparison was performed using commercially available GENESCAPE® expression analysis software. PPARαL administration detectably altered the expression of 218 of the 8973 (2.4%) hepatic genes fragments by greater than 1.5-fold. […] Novel genes, corresponding to fragments with no match within the database, were subsequently isolated and sequenced (FIG. 4). […] There was an excellent correlation between the expression analysis results derived by the GENECALLING® sequence identification methods in comparison with those results previously obtained by the use of reverse transcriptase-based PCR (“RT-PCR”) (See FIG. 3).
Harlan Sprague Dawley rats 10-14 weeks old were treated with oral tablet doses of: (i) PPARαL in an n-methylglucamine carrier twice daily (b.i.d) for a total of 3 days (3 rats total) or (ii) PPARαL in an n-methylglucamine carrier twice daily (b.i.d.) for a total of 3 days (3 rats total) or (iii) the n-methylglucamine carrier alone twice daily (b.i.d.) for a total of 3 days (3 rats total). On the fourth day, approximately 12 hours following the last dose of drug the animals were sacrificed. Liver and adipose tissue were harvested from all animals and snap frozen in liquid nitrogen.
Total cellular RNA was isolated with Trizol (GIBCO-BRL; Baltimore Md.) using a one-tenth volume of bromochloropropane (Molecular Research Corp.; Cincinnati, Ohio) to facilitate phase separation. Contaminating DNA was removed by treatment with DNase I (Promega Biotech; Milwaukee, Wis.) in the presence of 0.01 M DTT (GIBCO-BRL; Baltimore, Md.) and 1 Unit/1 RNAsin (Promega Biotech; Milwaukee, Wis.). Following phenol/chloroform extraction, RNA quality was evaluated by spectrophotometry and formaldehyde agarose gel electrophoresis, and RNA yield was estimated by fluorometry with OliGreen® (Molecular Probes; Eugene, Oreg.). Poly(A)^+ RNA was prepared from […] of total RNA by use of oligo(dT) paramagnetic beads (PerSeptive Biosynthesis; Boston, Mass.), and quantitated with fluorometry.
First strand cDNA was prepared from […] of poly(A)^+ RNA with 200 pmoles oligo(dT)25V (where V=A, C or G) (PerSeptive Biosynthesis; Boston, Mass.) using 40 Units of SuperScript II reverse transcriptase (GIBCO-BRL; Baltimore, Md.). […]

Data set [3] relates to CYP2B1. The note with it: rat hepatocytes; cited from earlier work.
The mark [4] stands for this setting: rat liver, 1.5 mg/kg/day b.i.d. 3 days, vs vehicle control.
Setting [5] is: rat liver, treatment with PPARαL.
Setting [6] is: rat liver, upon treatment with PPARα ligand.

Read-outs that look alike come from different tables or passages of the source.

For `CC(C)(Oc1ccc(C2CC2(Cl)Cl)cc1)C(=O)O` (stereo not shown) [ciprofibrate], the histidine decarboxylase expression result with Histidine decarboxylase is given as “upregulated”.

Consider `CC(C)(Oc1ccc(C2CCCc3ccccc32)cc1)C(=O)O` (stereo not shown) [nafenopin], for which, in the data set with acetyl CoA carboxylase, the “acetyl CoA carboxylase activity” value is given as “reduced”. Besides, the GSTa isoform level entry in the data set with GSTa isoform is “decrease”.

Regarding `CCOC(=O)C(C)(C)Oc1ccc(Cl)cc1` [clofibrate], the “gene encoding CYP2B1, expression” value with CYP2B1 [1] was “not been observed to change”.

As to `CCCCCCCN(CCc1ccc(SC(C)(C)C(=O)O)cc1)C(=O)Nc1ccc(F)cc1F` [GW9578], the “number of the 8973 hepatic gene fragments whose expression was altered by greater than 1.5-fold” value in data set [2] (1.5 mg/kg/day, b.i.d. for 3 days, male Sprague Dawley rats, liver, treated vs untreated, triplicate) came out at 218. Moreover, in data set [2] (setting [4]), the D-aminolevulinate synthetase up-regulation was 4 fold, the acetoacetyl-CoA thiolase upregulation was 100 fold, the acetyl-CoA-decarboxylase modulation result is “+2 fold” and the “apolipoprotein A-I modulation” value is on record as −2 fold. In addition, in data set [2] (setting [4]), the “carnitine octanoyl transferase upregulation” value is 4 fold, the catalase upregulation turned out to be 12 fold, the “down-regulation of metallothionein 1” value is on record as 100 fold and the epoxide hydrolase upregulation is listed as 10 fold. Also, in data set [2] (setting [4]), the “novel isoform of acyl-CoA oxidase upregulation” value stood at 10 fold, the porphobilinogen deaminase up-regulation worked out at 60 fold, the “reduction in steroid 3-α-dehydrogenase transcript levels” value stood at 60 fold and the “steroid 3-delta-dehydrogenase modulation” value was “off”. For the same molecule, the “very long chain acyl CoA synthetase upregulation” value in data set [2] (setting [4]) is given as 4 fold. In addition, the “novel gene similar in sequence to mouse carnitine acetyltransferase, expression” value in data set [2] (rat liver, following PPARα ligand treatment) is listed as “moderately upregulated”. Also, the “histidine decarboxylase gene upregulation” value in data set [2] (rat liver, following exposure to PPARα ligand) is “six”. In addition, in data set [2] (setting [5]), the “17-α-hydroxysteroid dehydrogenase IV transcription” value is on record as “up-regulated” and the “genes encoding the other steroid catabolism enzymes (steroid-3-α-dehydrogenase, hydroxysteroid sulfotransferase, CYP p450 M1, SMP-2, UDP-glucosuronyl transferase 21)” value was “downregulated”. Besides, in data set [2] (setting [6]), the acetyl-CoA carboxylase expression result is reported as “upregulation”; the “decrease in expression of the gene for glutathione S transferase Ya subunit” value is listed as “three”; the “differential regulation of ATP citrate lyase and fatty acid synthase” value is reported as “not detected”; the malic enzyme expression result is listed as “upregulation”. Moreover, the stearyl-CoA desaturase expression result in data set [2] (setting [6]) is reported as “upregulation”.

As to `CC(C)(Oc1ccc(Cl)cc1)C(=O)O` [clofibric acid], in the data set with CYP2B1 [3], the “gene encoding CYP2B1, expression” value is “upregulated”.

The values are drawn from US6551812B1, “Compositions and methods relating to the peroxisomal proliferator activated receptor-α mediated pathway” (CuraGen Corporation, priority 1998, dated 2003).
